The source of these data is EP4785943A1, “SOLID DISPERSION, PHARMACEUTICAL COMPOSITION, AND PREPARATION METHOD AND USE THEREFOR” (4B Technologies (Beijing) Co., Limited, priority 2023, dated 2025).

≈ marks a conversion by molar mass, not a printed value. Read-outs that look alike come from different tables or passages of the source.

The data set can be described thus: Solubility testing in FaSSIF, FeSSIF and SGF (37°C, HPLC of filtrate). Particulars: for pH after 2 h: pH of the 2-hour filtrate; for solubility at 0.5 h / solubility at 2 h: thermodynamic from solid, 37°C; for solubility at 0.5 h: read-out: Solubility (mg/mL) 0.5 h; for solubility at 2 h: read-out: Solubility (mg/mL) 2 h. Type of data set: physicochemical. How it is done: Preparation of FaSSIF stock solution with pH buffer: Approximately 621 mg of NaCl, approximately 345 mg of NaH2PO4, and approximately 41.9 mg of NaOH are weighed into a 100 mL volumetric flask, and dissolved in water to approximately 5 cm below the mark. After cooling and pH adjustment, the resulting mixture is diluted to volume with water, and mixed thoroughly with shaking.
FeSSIF stock solution: Approximately 866 mg of glacial acetic acid, approximately 406 mg of NaOH, and approximately 1184 mg of NaCl are weighed into a 100 mL volumetric flask, and dissolved in water to approximately 5 cm below the mark. After cooling and pH adjustment, the resulting mixture is diluted to volume with water, and mixed thoroughly with shaking.
SGF solution: Approximately 202 mg of NaCl and approximately 321 mg of pepsin are weighed into a 100 mL volumetric flask, followed by addition of 700 µL of HCl, and dissolved in water to approximately 5 cm below the mark. After cooling, the resulting mixture is diluted to volume with water, and mixed thoroughly with shaking.
FaSSIF solution: FaSSIF stock solution is transferred to a 100 mL volumetric flask, followed by addition of approximately 225 mg of FaSSIF powder, and dissolved in FaSSIF stock solution to approximately 5 cm below the mark. After cooling, the resulting mixture is diluted to volume with FaSSIF stock solution, mixed thoroughly with shaking, and allowed to stand for 2 hours before use.
FeSSIF solution: FeSSIF stock solution is transferred to a 100 mL volumetric flask, followed by addition of approximately 1122 mg of FeSSIF powder, and dissolved in FeSSIF stock solution to approximately 5 cm below the mark. After cooling, the resulting mixture is diluted to volume with FeSSIF stock solution, and mixed thoroughly with shaking.
Approximately 20 mg of sample is weighed into a 4 mL vial, followed by addition of 4 mL of different solvents (FaSSIF, FeSSIF, SGF). After the vial is equipped with a magnetic stir bar, the mixture is stirred at 37°C for 2 hours, during which samples are taken at 0.5 hours and 2 hours. After filtration, the sample concentration in the filtrate is determined by HPLC. The pH of the 2-hour filtrate and the crystal form of the remaining solid are also measured.

Turning to `COc1cc(Nc2ccc3ncc(N4CCOCC4)nc3c2C#N)ccc1OCc1ccc(C)nc1` [Compound 1, 6-((3-methoxy-4-((6-methylpyridin-3-yl)methoxy)phenyl)amino)-3-morpholinoquinoxaline-5-carbonitrile], where the note is “background statement”, the “solubility in aqueous media” value was “poorly soluble”. The “pH after 2 h” value is, setting by setting: (FaSSIF) 6.58; (FeSSIF) 5.02; (SGF) 1.28. In addition, the solubility at 0.5 h was 0.699 mg/mL (≈ 1450 µM) (simulated gastric fluid, SGF); 0.00026 mg/mL (≈ 0.539 µM) (FaSSIF); 0.00313 mg/mL (≈ 6.49 µM) (FeSSIF). The solubility at 2 h is, setting by setting: (simulated gastric fluid, SGF) 0.524 mg/mL (≈ 1090 µM); (FaSSIF) 0.00026 mg/mL (≈ 0.539 µM); (FeSSIF) 0.00293 mg/mL (≈ 6.07 µM).
